Source: patent US6362163B1, “Parathyroid hormone-related peptide analogs” (The General Hospital Corporation, priority 1996, dated 2002)
Where no end group is shown, it is not given here.

T1: PTH/PTHrP receptor (Homo sapiens, UniProt Q03431)
T1 construct: expressed in transfected cells; host or cells: COS-7 cells, transient transfection, vector pcDNA-1
T1 sequence (Q03431 27-593): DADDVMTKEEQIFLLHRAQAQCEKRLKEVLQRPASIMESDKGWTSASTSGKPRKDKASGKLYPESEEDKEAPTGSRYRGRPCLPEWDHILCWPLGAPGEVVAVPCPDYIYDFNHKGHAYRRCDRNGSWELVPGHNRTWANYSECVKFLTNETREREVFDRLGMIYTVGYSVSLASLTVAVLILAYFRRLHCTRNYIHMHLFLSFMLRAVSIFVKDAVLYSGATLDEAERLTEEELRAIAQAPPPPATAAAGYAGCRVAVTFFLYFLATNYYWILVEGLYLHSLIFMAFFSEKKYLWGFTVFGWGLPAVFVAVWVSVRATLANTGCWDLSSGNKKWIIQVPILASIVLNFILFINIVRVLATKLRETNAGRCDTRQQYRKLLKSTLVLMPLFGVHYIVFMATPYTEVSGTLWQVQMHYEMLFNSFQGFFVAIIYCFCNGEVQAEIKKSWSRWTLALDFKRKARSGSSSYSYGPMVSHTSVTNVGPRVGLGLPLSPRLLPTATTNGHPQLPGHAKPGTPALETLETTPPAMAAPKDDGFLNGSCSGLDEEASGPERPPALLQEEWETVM

B1: [I5, W23, Y36]hPTHrP-(1-36)NH2 (peptide)
peptide: AVSEIQLLHDKGKSIQDLRRRFWLHHLIAEIHTAEY-NH2
notes: also called [Ile^5, Trp^23]PTHrP-(1-36); [Ile^5,Trp^32]PTHrP-(1-36) [sic]
B2: Hybrid-5 hPTHrP-(1-18)/[Y34]hPTH-(19-34)NH2 (peptide)
peptide: AVSEHQLLHDKGKSIQDLERVEWLRKKLQDVHNY-NH2
modifications: also: radioiodinated in direct binding test
notes: Synthetic PTH/PTHrP hybrid ligand; also called radioiodinated hybrid-5 peptide

Key:
PTH-2 receptor [1] = biological target: T2, PTH-2 receptor (Homo sapiens, UniProt P49190); experiment: Ligand-induced intracellular cAMP accumulation, COS-7 cells expressing human PTH-2 receptor; type: cell-based; conditions: for cAMP agonist activity in words, PTH-2 receptor: COS-7 cells; for cAMP accumulation Maximum, PTH-2 receptor: highest level of cAMP attained, basal 5.4 ± 0.3 not subtracted, 1h at room temperature
T2 construct: expressed in transfected cells; host or cells: COS-7 cells, transient transfection, vector pcDNAI/Amp
T2 sequence (P49190 25-550): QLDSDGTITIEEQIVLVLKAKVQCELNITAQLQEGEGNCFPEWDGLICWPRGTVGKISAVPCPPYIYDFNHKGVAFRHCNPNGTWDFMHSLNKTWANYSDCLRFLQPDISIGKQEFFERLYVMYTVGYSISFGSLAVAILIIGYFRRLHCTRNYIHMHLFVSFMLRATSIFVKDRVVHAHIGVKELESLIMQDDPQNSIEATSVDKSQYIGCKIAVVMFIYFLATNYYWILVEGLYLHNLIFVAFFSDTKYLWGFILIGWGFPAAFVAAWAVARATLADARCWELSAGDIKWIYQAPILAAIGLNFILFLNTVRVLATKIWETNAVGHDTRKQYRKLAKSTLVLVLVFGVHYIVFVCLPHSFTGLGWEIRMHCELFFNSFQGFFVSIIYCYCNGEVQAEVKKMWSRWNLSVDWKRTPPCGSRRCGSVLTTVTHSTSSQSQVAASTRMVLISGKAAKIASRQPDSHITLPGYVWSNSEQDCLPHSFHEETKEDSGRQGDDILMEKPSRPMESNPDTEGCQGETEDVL
Description: (§1) The cDNAs encoding the human PTH/PTHrP receptor (Schipani, E. et al., Endocrinology 132:2157-2165 (1993)) and the human PTH-2 receptor (Usdin, T. et al., J. Biol. Chem. 270:15455-15458 (1995)) were carried on the expression vectors pcDNA-1 and pcDNAI/Amp (InVitrogen, San Diego, Calif.), respectively. COS-7 cells were cultured and transfected as described previously (Lee, C. et al., Mol. Endocrinol. 9:1269-1278 (1995)). Cells were transfected in 24-well plates using plasmid DNA (200 ng/well) purified by cesium chloride/ethidium bromide gradient centrifugation. Ligand binding and cAMP accumulation assays were performed three days after transfection, by which time the cell density reached 500,000±100,000 cells/well.
(§2) Transfected COS-7 cells were rinsed with […] of binding buffer. 200 μl of IBMX buffer (DMEM containing 2 mM IBMX, 1 mg/ml bovine serum albumin, 35 mM Hepes-NaOH, pH 7.4) and […] of binding buffer or binding buffer containing various amounts of a PTH or PTHrP analog were then added. The plates were incubated for 60 minutes at room temperature. The buffer was then withdrawn and the cells lysed by placing the plates on powdered dry ice and adding 0.5 ml of 50 mM HCl. The acid lysate was diluted 1/30 in dH2O, and an aliquot (5-50 μl) analyzed for cAMP content by radioimmunoassay. […] The cells were then incubated for 30 minutes at room temperature, and the resulting intracellular cAMP was measured by RIA. Data were analyzed using the AssayZap software (Elsevier Science Publishers BV, Cambridge, United Kingdom).

PTH-2 receptor [2] = biological target: T2, PTH-2 receptor; experiment: Competition radioligand binding, COS-7 cells transfected with human PTH-2 receptor
Description: as §1
(§3) Binding reactions were performed as described previously. Id. Each well (final volume: […]) contained 26 fmole of ^125I-[Nle^8,21,Tyr^34]rPTH(1-34)NH2 (100,000 CPM) and various amounts (0.4-300 pmole) of an unlabeled competitor ligand, both diluted in binding buffer (50 mM Tris-HCl, pH 7.7, 100 mM NaCl, 5 mM KCl, 2 mM CaCl, 5% heat-inactivated horse serum, 0.5% heat-inactivated fetal bovine serum). Incubations were at room temperature for 2 hours, except for experiments involving Scatchard analysis, which were performed at 4° C. for 6 hours. At the end of the binding reaction, the cells were rinsed 3 times with 0.5 ml of binding buffer, lysed with 0.5 ml of 5M NaOH, and the entire lysate was counted. Nonspecific binding of tracer (NSB), determined in wells containing 1 μM of [NleTyr^8,21,Tyr^34]rPTH-(1-34)NH2, was ˜1% of total counts added. Maximum specific binding (B0) was calculated as the total radioactivity bound to cells in the absence of unlabeled PTH ligand, minus NSB. […] For Scatchard analyses, homologous competition binding studies were performed that used ^125I-[-NleTyr^8,21,Tyr^34]rPTH-(1-34)NH2 (26 fmole/well) and varying amounts (1.2-300 pmol) of the same unlabeled ligand. Estimates of the number of receptors/cell derived from these studies assumed a single class of binding sites and a transfection efficiency of 20% (Abou-Samra, A. B. et al., Proc. Natl. Acad. Sci (USA) 89:2732-2736 (1992)).

PTH/PTHrP receptor [3] = biological target: T1, PTH/PTHrP receptor; experiment: Antagonism of PTH-(1-34)-induced cAMP formation, COS-7 cells expressing PTH/PTHrP receptor; type: cell-based; conditions: 30 minutes at room temperature, IBMX
Description: (§4) FIGS. 7A and 7B depicts the antagonism of PTH-(1-34)-induced cAMP formation in COS-7 cells expressing PTH/PTHrP or PTH-2 receptors. […] The corresponding basal cAMP levels in cells not treated with peptide were […] pmoles/well, respectively. Data are the mean (±s.e.m.) of two experiments, each performed in duplicate.
as §2

PTH/PTHrP receptor [4] = biological target: T1, PTH/PTHrP receptor; experiment: Competition radioligand binding, COS-7 cells transfected with human PTH/PTHrP receptor
Description: as §1, §3

PTH/PTHrP receptor [5] = biological target: T1, PTH/PTHrP receptor; experiment: Ligand-induced intracellular cAMP accumulation, COS-7 cells expressing human PTH/PTHrP receptor; type: cell-based; conditions: for cAMP agonist activity in words, PTH/PTHrP receptor: COS-7 cells; for cAMP accumulation Maximum, PTH/PTHrP receptor: highest level of cAMP attained, basal 4.6 ± 0.2 not subtracted, 1h at room temperature
Description: as §1, §2

PTH-2 receptor [6] = biological target: T2, PTH-2 receptor; experiment: Antagonism of PTH-(1-34)-induced cAMP formation, COS-7 cells expressing PTH-2 receptor; type: cell-based; conditions: 30 minutes at room temperature, IBMX
Description: as §4, §2

human PTH-2 receptor [7] = biological target: T3, human PTH-2 receptor (human, UniProt P49190 25-550); experiment: radioligand competition (tracer 125I-[Nle8,21,Tyr34]rPTH-(1-34)NH2) on transfected COS-7 cells, RT 2 h
T3 construct: whole, on cells; Transiently expressed on COS-7 cells
T3 sequence (P49190 25-550): as above
Description: Assays were performed for 2 hours at room temperature. Data are the mean (± s.e.m.) of IC$50$ values obtained from the number of experiments indicated (n).
Binding reactions were performed as described previously. Id. […] Incubations were at room temperature for 2 hours, except for experiments involving Scatchard analysis, which were performed at 4° C. for 6 hours. At the end of the binding reaction, the cells were rinsed 3 times with 0.5 ml of binding buffer, lysed with 0.5 ml of 5M NaOH, and the entire lysate was counted. […] Estimates of the number of receptors/cell derived from these studies assumed a single class of binding sites and a transfection efficiency of 20% (Abou-Samra, A. B. et al., *Proc. Natl. Acad. Sci* (*USA*) 89:2732–2736 (1992)).

human PTH-2 receptor [8] = biological target: T3, human PTH-2 receptor; experiment: cell-based or functional assay
[9] = competition with radioligand, COS-7 cells
[10] = agonist [Tyr34]hPTH-(1-34)NH2 1 nM

| Molecule | cAMP agonist activity in words, PTH-2 receptor (PTH-2 receptor [1]) | cAMP accumulation Maximum, PTH-2 receptor (PTH-2 receptor [1]) [pmoles/well] | Binding in words, PTH-2 receptor (PTH-2 receptor [2]; [9]) | cAMP level in cells treated with agonist alone, PTH/PTHrP receptor (PTH/PTHrP receptor [3]; 1 nM) [pmoles/well] | Binding potency, fold more potent than PTHrP-(1-36) (PTH/PTHrP receptor [4]; PTH/PTHrP receptor, inhibition of radioligand binding) [fold] | Binding in words, PTH/PTHrP receptor (PTH/PTHrP receptor [4]; [9]) | cAMP agonist activity in words, PTH/PTHrP receptor (PTH/PTHrP receptor [5]) | cAMP accumulation Maximum, PTH/PTHrP receptor (PTH/PTHrP receptor [5]) [pmoles/well] | cAMP level in cells treated with agonist alone, PTH-2 receptor (PTH-2 receptor [6]; 1 nM) [pmoles/well] | Enhancement of binding potency compared to PTHrP-(1-36) (PTH-2 receptor [2]; PTH-2 receptor) [fold] | Effect on PTH-(1-34)-induced cAMP response in words, PTH/PTHrP receptor (PTH/PTHrP receptor [3]; [10]) | Binding affinity, fold stronger than PTHrP-(1-36) (PTH/PTHrP receptor [4]; PTH/PTHrP receptor) [fold] | Inhibition of PTH-(1-34)-induced cAMP activity in words, PTH-2 receptor (PTH-2 receptor [6]; [10]) | IC50 (human PTH-2 receptor [7]) [nM] | cAMP accumulation EC50 (human PTH-2 receptor [8]) [nM] | cAMP accumulation Maximum (human PTH-2 receptor [8]) [pmoles/well] |
| --- | --- | --- | --- | --- | --- | --- | --- | --- | --- | --- | --- | --- | --- | --- | --- | --- |
| [Tyr^34]hPTH-(1-34)NH2 [[Y34]hPTH-(1-34)NH2, reference compound] | potent agonist | 81 ± 5 | bound with high apparent affinity | 167±17 | 4.8 | fully inhibited binding of the radioligand | full and potent agonists | 113 ± 13 | 70±8 | – | – | – | – | – | – | – |
| [Trp^23,Tyr^36]hPTHrP-(1-36) [[W23, Y36]hPTHrP-(1-36)NH2] | inactive | 12 ± 1 | – | – | – | – | potent agonist | 123 ± 14 | – | 71 | not an antagonist, but instead augmented the agonist response to PTH-(1-34) | 6 | at least as potent as [Leu^11,D-Trp^12]hPTHrP(7-34)NH2 | – | – | – |
| B1 | – | – | – | – | – | – | – | – | – | – | – | – | – | 10 | 0.5 | 65 |
| B2 | – | – | – | – | – | – | – | – | – | – | – | – | – | 500 | > 1000 | 6.2 |
